The results in this text go back to US20240166663A1, “NOVEL PYRIMIDINE DERIVATIVE SHOWING INHIBITION EFFECT ON GROWTH OF CANCER CELLS” (ONCOBIX CO., LTD., priority 2021, published 2024).

Chain of EXON 20 Insertion(NPG) Ba/F3 Cell (P00533 with tags, fused parts or gaps INS772GNP): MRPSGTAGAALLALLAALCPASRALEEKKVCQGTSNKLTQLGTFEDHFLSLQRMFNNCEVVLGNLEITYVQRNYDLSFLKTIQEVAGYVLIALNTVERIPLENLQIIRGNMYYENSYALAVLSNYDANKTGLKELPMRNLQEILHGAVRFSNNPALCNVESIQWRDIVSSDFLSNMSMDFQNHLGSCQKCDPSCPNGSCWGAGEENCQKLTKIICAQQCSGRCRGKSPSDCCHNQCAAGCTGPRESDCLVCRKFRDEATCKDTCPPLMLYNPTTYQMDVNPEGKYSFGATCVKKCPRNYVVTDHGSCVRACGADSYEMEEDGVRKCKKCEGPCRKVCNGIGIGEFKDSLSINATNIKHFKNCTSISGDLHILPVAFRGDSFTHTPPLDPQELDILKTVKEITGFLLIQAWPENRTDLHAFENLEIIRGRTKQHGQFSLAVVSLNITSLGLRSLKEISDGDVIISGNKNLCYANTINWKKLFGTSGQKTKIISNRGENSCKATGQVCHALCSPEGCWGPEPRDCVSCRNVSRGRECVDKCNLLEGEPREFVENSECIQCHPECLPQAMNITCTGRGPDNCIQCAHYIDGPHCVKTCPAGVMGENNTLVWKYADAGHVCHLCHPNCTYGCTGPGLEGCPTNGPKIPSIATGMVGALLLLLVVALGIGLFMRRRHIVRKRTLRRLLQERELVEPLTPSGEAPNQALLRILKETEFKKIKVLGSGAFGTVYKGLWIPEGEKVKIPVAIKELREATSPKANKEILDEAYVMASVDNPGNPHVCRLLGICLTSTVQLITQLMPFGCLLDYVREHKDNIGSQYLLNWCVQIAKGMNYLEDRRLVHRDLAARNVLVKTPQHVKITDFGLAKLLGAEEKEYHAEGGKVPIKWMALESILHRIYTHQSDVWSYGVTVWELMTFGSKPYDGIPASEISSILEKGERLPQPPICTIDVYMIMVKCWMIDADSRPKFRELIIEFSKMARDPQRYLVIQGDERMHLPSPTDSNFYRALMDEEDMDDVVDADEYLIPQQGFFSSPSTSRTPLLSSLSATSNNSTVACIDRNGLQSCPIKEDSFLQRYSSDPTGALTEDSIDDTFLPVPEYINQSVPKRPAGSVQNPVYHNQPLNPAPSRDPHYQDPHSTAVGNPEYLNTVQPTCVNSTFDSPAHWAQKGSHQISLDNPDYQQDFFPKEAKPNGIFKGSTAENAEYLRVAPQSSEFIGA

For this experiment, the target named is EXON 20 Insertion(NPG) Ba/F3 Cell (Homo sapiens, UniProt P00533, INS772GNP, cells depend on it). Nature of the experiment: Measurement of cancer cell growth inhibitory effect (MTT assay). It counts as cell-based, Murine. Particulars: Ba/F3 cells expressing EGFR with NPG added at D770_N771, 72 hours treatment, read at 595 nm, read-out: EXON 20 Insertion(NPG) Ba/F3 Cell(IC50). The source says:
Since there is no commercially available lung cancer cell line with EGFR insertion mutation, a method of inserting 3 to 4 amino acids at each site using site direct mutagenesis in a wild type EGFR expression vector was attempted. In the present invention, first, a vector with three amino acids of NPG added to the D770_N771 site with the highest frequency was used, and Ba/F3 cell line was used for expression of these genes.
When the oncogenic mutant EGFR is expressed, dependence on the mutant EGFR for cell growth and apoptosis occurs without IL-3. Therefore, substances that show effective inhibition of mutant EGFR suppress cell growth and induce apoptosis, so the anticancer effect of cells was analyzed through MTT assay.
1×10^4 cells of the previously constructed stable cells were put into a 96 well plate and incubated overnight, and then the compound of Example was dose dependently treated. After 72 hours, MTT reagent was added, and after 3 hours stop buffer (10% SDS) was added. After 24 hours of incubation, the results were analyzed by reading at 595 nm. […] As a control drug, Mobocertinib was used.
Background: Tetrazolium dyes change colour on reduction, which living cells bring about.
With `C=CC(=O)Nc1cc(Nc2ncc(C(=O)OC(C)C)c(Nc3ccccc3-c3ccn(C)n3)n2)c(OC)cc1N1CC[C@@H](N(C)C)C1` [Example 26, Isopropyl(R)-2-((5-acrylamido-4-(3-(dimethylamino)pyrrolidin-1-yl)-2-methoxyphenyl)amino)-4-((2-(1-methyl-1H-pyrazol-3-yl)phenyl)amino)pyrimidin-5-carboxylate], the GI50 lay in the range of 25 to 50 nM.
With `C=CC(=O)Nc1cc(Nc2ncc(C(=O)OC(C)C)c(Nc3ccccc3-c3ccn(C)n3)n2)c(OC)cc1N(C)[C@@H]1CCN(C)C1` [Example 27, Isopropyl(R)-2-((5-acrylamido-2-methoxy-4-(methyl(1-methylpyrrolidin-3-yl)amino)phenyl)amino)-4-((2-(1-methyl-1H-pyrazol-3-yl)phenyl)amino)pyrimidin-5-carboxylate], the GI50 is 25 to 50 nM.
With `C=CC(=O)Nc1cc(Nc2ncc(C(=O)OC(C)C)c(Nc3ccccc3-c3ccn(C)n3)n2)c(OC)cc1N(C)[C@H]1CCN(C)C1` [Example 28, Isopropyl(S)-2-((5-acrylamido-2-methoxy-4-(methyl(1-methylpyrrolidin-3-yl)amino)phenyl)amino)-4-((2-(1-methyl-1H-pyrazol-3-yl)phenyl)amino)pyrimidin-5-carboxylate] the figure was 25 to 50 nM.
In the case of `C=CC(=O)Nc1cc(Nc2ncc(Cl)c(Nc3ccccc3-c3ccn(C)n3)n2)c(OC)cc1N(C)CCN(C)C` [Example 29, N-(5-((5-chloro-4-((2-(1-methyl-1H-pyrazol-3-yl)phenyl)amino)pyrimidin-2-yl)amino)-2-((2-(dimethylamino)ethyl)(methyl)amino)-4-methoxyphenyl)acrylamide], the GI50 was < 25 nM.
For `C=CC(=O)Nc1cc(Nc2ncc(Cl)c(Nc3ccccc3-n3cccn3)n2)c(OC)cc1N(C)CCN(C)C` [Example 30, N-(5-((4-((2-(1H-pyrazol-1-yl)phenyl)amino)-5-chloropyrimidin-2-yl)amino)-2-((2-(dimethylamino)ethyl)(methyl)amino)-4-methoxyphenyl)acrylamide] the value was < 25 nM.
With `C=CC(=O)Nc1cc(Nc2ncc(Cl)c(Nc3ccccc3-c3ccn(C)n3)n2)c(OC)cc1N1CCN(C)CC1` [Example 31, N-(5-((5-chloro-4-((2-(1-methyl-1H-pyrazol-3-yl)phenyl)amino)pyrimidin-2-yl)amino)-4-methoxy-2-(4-methylpiperizin-1-yl)phenyl)acrylamide] the figure was 25 to 50 nM.
For `C=CC(=O)Nc1cc(Nc2ncc(Cl)c(Nc3ccccc3-c3ccn(C)n3)n2)c(OC)cc1N1CCOCC1` [Example 32, N-(5-((5-chloro-4-((2-(1-methyl-1H-pyrazol-3-yl)phenyl)amino)pyrimidin-2-yl)amino)-4-methoxy-2-morpholinophenyl)acrylamide], the GI50 was in the range of 25 to 50 nM.
For the compound `C=CC(=O)Nc1cc(Nc2ncc(Cl)c(Nc3ccccc3-c3ccn(C)n3)n2)c(OC)cc1N1CC[C@H](N(C)C)C1` [Example 33, (S)-N-(5-((5-chloro-4-((2-(1-methyl-1H-pyrazol-3-yl)phenyl)amino)pyrimidin-2-yl)amino)-2-(3-(dimethylamino)pyrrolidin-1-yl)-4-methoxyphenyl)acrylamide], the GI50 was in the range of 25 to 50 nM.
For `C=CC(=O)Nc1cc(Nc2ncc(Cl)c(Nc3ccccc3-c3ccn(C)n3)n2)c(OC)cc1N1CC[C@@H](N(C)C)C1` [Example 34, (R)-N-(5-((5-chloro-4-((2-(1-methyl-1H-pyrazol-3-yl)phenyl)amino)pyrimidin-2-yl)amino)-2-(3-(dimethylamino)pyrrolidin-1-yl)-4-methoxyphenyl)acrylamide] the value was 25 to 50 nM.
`C=CC(=O)Nc1cc(Nc2ncc(Cl)c(Nc3ccccc3-c3ccn(C)n3)n2)c(OC)cc1N(C)[C@@H]1CCN(C)C1` [Example 35, (R)-N-(5-((5-chloro-4-((2-(1-methyl-1H-pyrazol-3-yl)phenyl)amino)pyrimidin-2-yl)amino)-4-methoxy-2-(methyl(1-methylpyrrolidin-3-yl)amino)phenyl)acrylamide]: the GI50 lay within 25 to 50 nM.
For `C=CC(=O)Nc1cc(Nc2ncc(Cl)c(Nc3ccccc3-c3ccn(C)n3)n2)c(OC)cc1N(C)[C@H]1CCN(C)C1` [Example 36, (S)-N-(5-((5-chloro-4-((2-(1-methyl-1H-pyrazol-3-yl)phenyl)amino)pyrimidin-2-yl)amino)-4-methoxy-2-(methyl(1-methylpyrrolidin-3-yl)amino)phenyl)acrylamide] the value was 25 to 50 nM; for `C=CC(=O)Nc1cc(Nc2cc(Nc3ccccc3-n3cccn3)ncn2)c(OC)cc1N(C)CCN(CC)CC` [Example 37, N-(5-((6-((2-(1H-pyrazol-1-yl)phenyl)amino)pyrimidin-4-yl)amino)-2-((2-(diethylamino)ethyl)(methyl)amino)-4-methoxyphenyl)acrylamide], 25 to 50 nM; for `C=CC(=O)Nc1cc(Nc2cc(Nc3ccccc3-n3cccn3)ncn2)c(OC)cc1N1CC2COCC2C1` (stereo not drawn) [Example 38, N-(5-((6-((2-(1H-pyrazol-1-yl)phenyl)amino)pyrimidin-4-yl)amino)-4-methoxy-2-(tetrahydro-1H-furo[3,4-c]pyrrol-5 (3H)-yl)phenyl)acrylamide], 25 to 50 nM.
For `C=CC(=O)Nc1cc(Nc2cc(Nc3ccccc3-n3cccn3)ncn2)c(OC)cc1N1C2CCC1COC2` [Example 39, N-(5-((6-((2-(1H-pyrazol-1-yl)phenyl)amino)pyrimidin-4-yl)amino)-2-(3-oxa-8-azabicyclo[3.2.1]octan-8-yl)-4-methoxyphenyl)acrylamide] the value was 25 to 50 nM; for `C=CC(=O)Nc1cc(Nc2ncc(C(=O)OC(C)C)c(-c3cn(C)c4ccccc34)n2)c(OC)cc1N(C)CCN(C)C` [Mobocertinib, reference compound], 50 to 500 nM.
